Laboratory results reported in US9527832B2, “Substituted condensed pyrimidine compounds” (GRÜNENTHAL GMBH, priority 2013, dated 2016).

Target: T1, human PDE4B1 (Homo sapiens, UniProt Q07343)
T1 construct: host or cells: Sf9 cells
Experiment: cAMP HTRF assay to determine the activity of hPDE4B1
Assay type: biochemical
Conditions: for inhibition at 1 µM: Percentage inhibition of PDE4B at 1 μM test concentration; for IC50: dose response measurements with eight concentrations, reported as ranges, read-out: IC50
Experimental: cAMP HTRF® Assay to Determine the Activity of hPDE4B1
The inhibiting effect of the compounds on the enzyme activity of human PDE4B1 was measured by the quantification of 5′-adenosine monophosphate (5′-AMP), which is formed from 3′,5′-cyclic adenosine monophosphate (cAMP). Human recombinant enzyme, expressed in Sf9 cells, and the HTRF (homogeneous time-resolved fluorescence) detection method were used in the assay.
The test compound or water (control) was mixed with the human recombinant PDE4B1 enzyme (4.8 U) in a buffer consisting of 44.4 mM tris-HCl, 5.28 mM MgCl2, 2.64 mM DTT and 0.044% Tween 20 (pH 7.8). After adding the cAMP enzyme substrate (final concentration 40 nM), the mixture was incubated for 30 minutes at room temperature. Then a fluorescence acceptor (Dye2 marked with cAMP), a fluorescence donor (anti-cAMP antibody marked with a europium cryptate) and the non-specific phosphodiesterase inhibitor IBMX (3-isobutyl-1-methylxanthine; final concentration 1 mM) were added. After 60 minutes the fluorescence transfer, which correlates with the amount of remaining cAMP, was measured with a microplate reader (Rubystar, BMG) at λex=337 nm, λem=620 nm and λem=665 nm. The enzyme activity was calculated from the quotient formed from the measured signal at 665 nm and that at 620 nm. The result was expressed as the percentage inhibition of enzyme activity of the control (without PDE4 inhibitor). The enzyme was omitted for measurement of the basal control.
IC50 values (IC50=concentration causing a half-maximal inhibition of control specific activity) were derived from dose response measurements with eight different concentrations (n=2; N=1-2).
Literature: N. Saldou et al., Comparison of recombinant human PDE4 isoforms: interaction with substrate and inhibitors, Cell. Signal. Vol. 10, No. 6, 427-440, 1998

T1 sequence (Q07343 whole entry): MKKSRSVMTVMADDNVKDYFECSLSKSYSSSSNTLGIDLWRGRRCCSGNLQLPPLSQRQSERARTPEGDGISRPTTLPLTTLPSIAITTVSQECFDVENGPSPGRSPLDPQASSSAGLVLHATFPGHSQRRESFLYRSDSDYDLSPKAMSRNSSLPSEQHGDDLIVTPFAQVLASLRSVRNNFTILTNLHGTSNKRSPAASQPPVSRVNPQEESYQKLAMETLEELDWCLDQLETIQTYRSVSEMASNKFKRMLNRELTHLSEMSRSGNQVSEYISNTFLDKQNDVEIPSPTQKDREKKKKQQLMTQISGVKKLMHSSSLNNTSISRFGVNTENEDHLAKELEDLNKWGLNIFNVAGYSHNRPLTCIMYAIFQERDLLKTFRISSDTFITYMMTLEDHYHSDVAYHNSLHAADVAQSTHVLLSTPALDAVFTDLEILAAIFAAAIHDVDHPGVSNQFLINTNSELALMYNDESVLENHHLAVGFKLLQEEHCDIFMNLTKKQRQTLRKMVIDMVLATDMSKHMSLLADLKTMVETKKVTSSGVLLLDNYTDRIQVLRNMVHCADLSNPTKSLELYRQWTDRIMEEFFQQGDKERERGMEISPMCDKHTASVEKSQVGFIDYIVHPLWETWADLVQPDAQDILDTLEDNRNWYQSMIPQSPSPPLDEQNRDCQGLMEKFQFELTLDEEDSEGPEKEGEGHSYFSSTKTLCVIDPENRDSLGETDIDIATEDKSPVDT

Structure (SMILES) | inhibition at 1 µM [%] | IC50 [nM]
CN(C)C(=O)COc1ccc2c(c1)N(c1nc(-c3ccc4cccnc4c3)nc3c1C[S+]([O-])C3)CC2 (stereo not shown) [2-149, N,N-Dimethyl-2-[[1-(6-oxo-2-quinolin-7-yl-5,7-dihydro-thieno[3,4-d]pyrimidin-4-yl)-2,3-dihydro-1H-indol-6-yl]oxy]-acetamide] | 92 | < 100
CN(C)C(=O)COc1ccc2c(c1)N(c1nc(-c3ccc4ccncc4c3)nc3c1C[S+]([O-])C3)CC2 (stereo not shown) [2-150, 2-[[1-(2-Isoquinolin-7-yl-6-oxo-5,7-dihydro-thieno[3,4-d]pyrimidin-4-yl)-2,3-dihydro-1H-indol-6-yl]oxy]-N,N-dimethyl-acetamide] | 126 | < 100
CN(C)C(=O)COc1ccc2c(c1)N(c1nc(-c3cccc4[nH]ccc34)nc3c1C[S+]([O-])C3)CC2 (stereo not shown) [2-151, 2-[[1-[2-(1H-Indol-4-yl)-6-oxo-5,7-dihydro-thieno[3,4-d]pyrimidin-4-yl]-2,3-dihydro-1H-indol-6-yl]oxy]-N,N-dimethyl-acetamide] | 108 | < 100
CN(C)C(=O)COc1ccc2c(c1)N(c1nc(-c3ccc4c(c3)CCO4)nc3c1C[S+]([O-])C3)CC2 (stereo not shown) [2-153, 2-[[1-[2-(2,3-Dihydro-benzofuran-5-yl)-6-oxo-5,7-dihydro-thieno[3,4-d]pyrimidin-4-yl]-2,3-dihydro-1H-indol-6-yl]oxy]-N,N-dimethyl-acetamide] | 97 | < 100
CN(C)C(=O)COc1ccc2c(c1)N(c1nc(-c3ccc4sccc4c3)nc3c1C[S+]([O-])C3)CC2 (stereo not shown) [2-155, 2-[[1-[2-(Benzo[b]thiophen-5-yl)-6-oxo-5,7-dihydro-thieno[3,4-d]pyrimidin-4-yl]-2,3-dihydro-1H-indol-6-yl]oxy]-N,N-dimethyl-acetamide] | 102 | < 100
COc1ccc(-c2nc3c(c(N4CCc5cc(CC(=O)O)ccc54)n2)CCC3)cc1F [Compound No. 1-1, 2-(1-(2-(3-Fluoro-4-methoxyphenyl)-6,7-dihydro-5H-cyclopenta[d]-pyrimidin-4-yl)indolin-5-yl)acetic acid] | 102 | < 100
COc1ccc(-c2nc3c(c(N4CCc5cc(CC(=O)O)ccc54)n2)CCC3)cc1Cl [Compound No. 1-2, 2-(1-(2-(3-Chloro-4-methoxyphenyl)-6,7-dihydro-5H-cyclopenta[d]-pyrimidin-4-yl)indolin-5-yl)acetic acid] | 91 | < 100
COc1ccc(-c2nc3c(c(N4CCc5cc(CC(=O)O)ccc54)n2)CCC3)cc1 [Compound No. 1-3, 2-(1-(2-(4-Methoxyphenyl)-6,7-dihydro-5H-cyclopenta[d]pyrimidin-4-yl)indolin-5-yl)acetic acid] | 83 | < 100

More lines, now with the values ahead:

inhibition at 1 µM [%] | IC50 [nM] | Structure (SMILES)
88 | < 100 | CN(C)C(=O)COc1ccc2c(c1)N(c1nc(-c3ccc4[nH]ccc4c3)nc3c1C[S+]([O-])C3)CC2 (stereo not shown) [2-152, 2-[[1-[2-(1H-Indol-5-yl)-6-oxo-5,7-dihydro-thieno[3,4-d]pyrimidin-4-yl]-2,3-dihydro-1H-indol-6-yl]oxy]-N,N-dimethyl-acetamide]
104 | < 100 | CN(C)C(=O)COc1ccc2c(c1)N(c1nc(-c3ccc4occc4c3)nc3c1C[S+]([O-])C3)CC2 (stereo not shown) [2-154, 2-[[1-[2-(Benzofuran-5-yl)-6-oxo-5,7-dihydro-thieno[3,4-d]pyrimidin-4-yl]-2,3-dihydro-1H-indol-6-yl]oxy]-N,N-dimethyl-acetamide]
98 | < 100 | COc1ccc(-c2nc3c(c(N4CCc5cc(CC(=O)O)ccc54)n2)CSC3)cc1Cl [Compound No. 1-5, 2-(1-(2-(3-Chloro-4-methoxyphenyl)-5,7-dihydrothieno[3,4-d]pyrimidin-4-yl)indolin-5-yl)acetic acid]
